Here are results for three molecules from patent publication US5028622A, “Administration of amino acids as treatment for neurodegenerative disorders” (Ajinomoto Company, Inc., priority 1989, dated 1991).

“Also recorded” adds a separate entry of the source. Where two headings read alike, the source gives them in different places.

The subject of one data set is ALS. Particulars: literature (Patten and Klein 1988); cited from earlier work.
Another data set is described as follows: clinical. Particulars: human, in vivo. From the text: FIG. 4. Results of the branched-chain amino acid oral test dose. […] Blood samples were drawn at the times indicated and processed as previously described(5). Data points represent mean values from 9 patients ±SEM. * Denotes p<0.001 and p<005. Symbols refer comparisons to 0 time values according to the student's t-test.
(§1) Baseline blood chemistries and complete blood counts (CBC were obtained. To assure bioavailability of the BCAA, an oral test dose of the above-described mixture or placebo was given after overnight fasting at baseline. Blood samples were drawn at 0, 60 and 120 minutes after dosing for multi-chemistries, CBSs and serum ammonia and amino acid levels. In addition, a random blood sample was obtained for the above studies at three month intervals with no attention paid to time of oral dosing. Plasma amino acid levels were assayed as previously described. [A. Platakis and J. Caroscio, "Abnormal Glutamate Metabolism in Amyotrophic Lateral Sclerosis, " Ann Neurol, 1987, 22:575-579. The contents of this article are herein incorporated by reference]

A short description of data set [1]: Random blood samples during the one-year trial: plasma amino acid levels. Particulars: amino acid-treated ALS patients. It counts as in vivo, human. The procedure:
as §1

Data set [2] deals with glutamate dehydrogenase (GDH). Conditions: literature (Yielding and Tomkins 1961); cited from earlier work.
Data set [3] has as its target T1, glutamate dehydrogenase (GDH) (Homo sapiens, UniProt P00367).
T1 construct: GDH present in post mortem brain tissue; from tissue; host or cells: human post mortem brain: cerebellum (control and multisystem atrophy patient 1), frontal cortex (multisystem atrophy patient 2)
Description: In vitro leucine activation of membrane bound GDH in post mortem brain tissue. It counts as biochemical. Particulars: for activity at 250 µM: leucine 0.25 mM; for activity at 500 µM: leucine 0.50 mM; for activity at 1000 µM: leucine 1.0 mM; for activity at 5000 µM: leucine 5.0 mM; for activity at 10000 µM: leucine 10 mM. From the text:
(Table 4) Tissue preparation and GDH determinations were done according to methods previously reported. [A. D. Colon, A. Plaitakis, S. Berl, and D. D. Clark. "The purification and characterization of soluble and particulate Glutamate Dehydrogenase in Rat Brain," Neurochemistry, 1986, 46:1811-1819. The contents of this publication are herein incorporated by reference] […] FIG. 4.

For data set [4] the following is noted: in vivo; cited from earlier work.
The mark [5] stands for this setting: Control Patient Cerebellum, read-out: Percent Baseline GDH Activity.
Setting [6] is: Multisystem Atrophy Multineuron Disease Patient 1 Cerebellum, read-out: Percent Baseline GDH Activity.
Where [7] appears, read: Multisystem Atrophy Multineuron Disease Patient 2 Frontal Cortex, read-out: Percent Baseline GDH Activity.

T1 sequence (P00367 54-558): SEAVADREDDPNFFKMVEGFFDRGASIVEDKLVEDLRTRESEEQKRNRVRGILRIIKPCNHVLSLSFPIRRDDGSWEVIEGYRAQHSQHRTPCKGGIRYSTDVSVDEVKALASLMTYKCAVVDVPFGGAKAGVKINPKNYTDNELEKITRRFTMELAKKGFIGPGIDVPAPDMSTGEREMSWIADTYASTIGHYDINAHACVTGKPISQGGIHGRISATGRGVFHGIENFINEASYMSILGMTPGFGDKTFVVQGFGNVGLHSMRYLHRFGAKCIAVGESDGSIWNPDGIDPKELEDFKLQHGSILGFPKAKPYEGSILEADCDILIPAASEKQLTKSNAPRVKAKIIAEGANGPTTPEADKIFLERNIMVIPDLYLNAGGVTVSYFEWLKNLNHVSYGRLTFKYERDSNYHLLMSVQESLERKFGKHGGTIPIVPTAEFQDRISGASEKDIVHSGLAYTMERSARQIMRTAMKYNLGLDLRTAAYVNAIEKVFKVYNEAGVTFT

With `CC[C@H](C)[C@H](N)C(=O)O` [L-isoleucine], in the data set on ALS, the “status of ALS patients treated with it as placebo substituted for L-threonine” value is “revert to previous status”. Further, the “increase in plasma level following oral dosing” value was determined as 393% in the data set “clinical” (60 min) and 183% in the data set “clinical” (120 min). In addition, in data set [1], the “plasma level higher than that of placebo-treated patients” value (“plasma level higher than that” for short) amounted to 93%. Besides, the “activation of glutamate dehydrogenase in vitro” value (from here on “activation”) in data set [2] is listed as “allosterically activate; also recorded: can be activated”.
For the molecule `CC(C)C[C@H](N)C(=O)O` [L-leucine], the “status of ALS patients treated with it as placebo substituted for L-threonine” value in the data set on ALS is given as “revert to previous status”. In data set [3] (setting [5]), the activity at 250 µM came out at 117%, the activity at 500 µM was determined as 135%, the activity at 1000 µM came out at 143% and the activity at 5000 µM was determined as 155%. Also, the activity at 10000 µM in data set [3] (setting [5]) amounted to 160%. Further, in data set [3] (Control Patient Cerebellum, leucine 2.5 mM, read-out: Percent Baseline GDH Activity), the activity at 2500 µM turned out to be 155%. In addition, in data set [3] (setting [6]), the activity at 250 µM is 117%, the activity at 500 µM was 153%, the activity at 1000 µM turned out to be 186% and the activity at 5000 µM was 176%. Besides, the activity at 10000 µM in data set [3] (setting [6]) turned out to be 176%. Also, in data set [3] (Multisystem Atrophy Multineuron Disease Patient 2 Frontal Cortex, leucine 0.15 mM, read-out: Percent Baseline GDH Activity), the activity at 150 µM was 122%. Further, in data set [3] (setting [7]), the activity at 250 µM was determined as 128% and the activity at 500 µM was found to be 141%. In addition, in data set [3] (post mortem brain tissue, effect concentration dependent), the “lowest concentration effective in producing increases in GDH activity” value worked out at 0.15 mM. The “increase in plasma level following oral dosing” value in “clinical” (60 min) was 300%. Also, the “increase in plasma level following oral dosing” value in “clinical” (120 min) was found to be 192%. Also, in the data set “clinical” (po), the concentration at 1 h was approximately 450 µM and the concentration at 2 h was approximately 300 µM. In data set [1], the “plasma level higher than that” value is 112%. Besides, the “activation” value in data set [2] is “allosterically activate; also recorded: can be activated”. Moreover, the “effect on plasma and CSF levels of the other two BCAAs” value in data set [4] is “severely depress”.
`CC(C)[C@H](N)C(=O)O` [L-valine]: the “increase in plasma level following oral dosing” value in “clinical” (60 min) is 95%; in the data set “clinical” (120 min), 53%. Further, in data set [1], the “plasma level higher than that” value is listed as 61%. In addition, in data set [2], the “activation” value is recorded as “allosterically activate”.
